{"source": "the supplement of paper PMC10307832", "assay_in_all_cases": "relative viability (nuclei count vs DMSO), 5 days (fraction); higher = more cells survive", "key": {"[1]": {"test_system": "UMC-11", "summary_of_the_method": "(§1)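 Lung cancer cell lines were pin-tool dosed in 1536-well plates on the day after seeding, with either a lone drug or a fixed anchor-drug dose plus five library-drug doses (not always all listed) in √10 steps. Nuclei were counted on 4× images after 5 days. Relative viability is the ratio of treated-well to vehicle-well nuclei counts, with each value a median of duplicate plates.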"}, "[2]": {"test_system": "LC-2-ad", "summary_of_the_method": "as §1"}, "[3]": {"test_system": "NCI-H2342", "summary_of_the_method": "as §1"}, "[4]": {"test_system": "LCLC-103H", "summary_of_the_method": "as §1"}, "[5]": {"test_system": "NCI-H1915", "summary_of_the_method": "as §1"}, "[6]": {"test_system": "HCC-366", "summary_of_the_method": "as §1"}, "[7]": {"test_system": "NCI-H1975", "summary_of_the_method": "as §1"}, "[8]": {"test_system": "NCI-H2347", "summary_of_the_method": "as §1"}, "[9]": {"test_system": "NCI-H1755", "summary_of_the_method": "as §1"}, "[10]": {"test_system": "NCI-H1792", "summary_of_the_method": "as §1"}, "[11]": {"test_system": "A-427", "summary_of_the_method": "as §1"}, "[12]": {"test_system": "NCI-H1355", "summary_of_the_method": "as §1"}}, "data": [{"smiles": "CCNC(=O)c1noc(-c2cc(C(C)C)c(O)cc2O)c1-c1ccc(CN2CCOCC2)cc1", "note": "[Luminespib] + CC(=O)Nc1cccc(-n2c(=O)n(C3CC3)c(=O)c3c(Nc4ccc(I)cc4F)n(C)c(=O)c(C)c32)c1 [Trametinib] (partner 0.02 µM)", "values": [{"measurement": "relative viability", "setting": "[1]; first compound 0.06325 µM", "value": 0.212}, {"measurement": "relative viability", "setting": "[1]; first compound 0.2 µM", "value": 0.157}, {"measurement": "relative viability", "setting": "[2]; first compound 0.002 µM", "value": 0.926}, {"measurement": "relative viability", "setting": "[2]; first compound 0.006325 µM", "value": 0.903}, {"measurement": "relative viability", "setting": "[2]; first compound 0.02 µM", "value": 1.06}, {"measurement": "relative viability", "setting": "[2]; first compound 0.06325 µM", "value": 0.889}, {"measurement": "relative viability", "setting": "[2]; first compound 0.2 µM", "value": 0.647}, {"measurement": "relative viability", "setting": "[3]; first compound 0.002 µM", "value": 0.687}, {"measurement": "relative viability", "setting": "[3]; first compound 0.006325 µM", "value": 0.881}, {"measurement": "relative viability", "setting": "[3]; first compound 0.02 µM", "value": 0.551}, {"measurement": "relative viability", "setting": "[3]; first compound 0.06325 µM", "value": 0.889}, {"measurement": "relative viability", "setting": "[3]; first compound 0.2 µM", "value": 0.52}, {"measurement": "relative viability", "setting": "[4]; first compound 0.002 µM", "value": 0.625}, {"measurement": "relative viability", "setting": "[4]; first compound 0.006325 µM", "value": 0.657}, {"measurement": "relative viability", "setting": "[4]; first compound 0.02 µM", "value": 0.699}, {"measurement": "relative viability", "setting": "[4]; first compound 0.06325 µM", "value": 0.693}, {"measurement": "relative viability", "setting": "[4]; first compound 0.2 µM", "value": 0.689}, {"measurement": "relative viability", "setting": "[5]; first compound 0.002 µM", "value": 0.316}, {"measurement": "relative viability", "setting": "[5]; first compound 0.006325 µM", "value": 0.287}, {"measurement": "relative viability", "setting": "[5]; first compound 0.02 µM", "value": 0.244}, {"measurement": "relative viability", "setting": "[5]; first compound 0.06325 µM", "value": 0.254}, {"measurement": "relative viability", "setting": "[5]; first compound 0.2 µM", "value": 0.161}, {"measurement": "relative viability", "setting": "[6]; first compound 0.002 µM", "value": 0.354}, {"measurement": "relative viability", "setting": "[6]; first compound 0.006325 µM", "value": 0.363}, {"measurement": "relative viability", "setting": "[6]; first compound 0.02 µM", "value": 0.349}, {"measurement": "relative viability", "setting": "[6]; first compound 0.06325 µM", "value": 0.026}, {"measurement": "relative viability", "setting": "[6]; first compound 0.2 µM", "value": 0.0301}, {"measurement": "relative viability", "setting": "[7]; first compound 0.002 µM", "value": 0.349}, {"measurement": "relative viability", "setting": "[7]; first compound 0.006325 µM", "value": 0.334}, {"measurement": "relative viability", "setting": "[7]; first compound 0.02 µM", "value": 0.168}, {"measurement": "relative viability", "setting": "[7]; first compound 0.06325 µM", "value": 0.107}, {"measurement": "relative viability", "setting": "[7]; first compound 0.2 µM", "value": 0.118}, {"measurement": "relative viability", "setting": "[8]; first compound 0.002 µM", "value": 0.29}, {"measurement": "relative viability", "setting": "[8]; first compound 0.006325 µM", "value": 0.307}, {"measurement": "relative viability", "setting": "[8]; first compound 0.02 µM", "value": 0.269}, {"measurement": "relative viability", "setting": "[8]; first compound 0.06325 µM", "value": 0.254}, {"measurement": "relative viability", "setting": "[8]; first compound 0.2 µM", "value": 0.294}, {"measurement": "relative viability", "setting": "[9]; first compound 0.002 µM", "value": 0.783}, {"measurement": "relative viability", "setting": "[9]; first compound 0.006325 µM", "value": 0.733}, {"measurement": "relative viability", "setting": "[9]; first compound 0.02 µM", "value": 0.691}, {"measurement": "relative viability", "setting": "[9]; first compound 0.06325 µM", "value": 0.765}, {"measurement": "relative viability", "setting": "[9]; first compound 0.2 µM", "value": 0.701}, {"measurement": "relative viability", "setting": "[10]; first compound 0.002 µM", "value": 0.407}, {"measurement": "relative viability", "setting": "[10]; first compound 0.006325 µM", "value": 0.391}, {"measurement": "relative viability", "setting": "[10]; first compound 0.02 µM", "value": 0.317}, {"measurement": "relative viability", "setting": "[10]; first compound 0.06325 µM", "value": 0.0621}, {"measurement": "relative viability", "setting": "[10]; first compound 0.2 µM", "value": 0.0632}, {"measurement": "relative viability", "setting": "[11]; first compound 0.002 µM", "value": 0.771}, {"measurement": "relative viability", "setting": "[11]; first compound 0.006325 µM", "value": 0.74}, {"measurement": "relative viability", "setting": "[11]; first compound 0.02 µM", "value": 0.632}, {"measurement": "relative viability", "setting": "[11]; first compound 0.06325 µM", "value": 0.607}, {"measurement": "relative viability", "setting": "[11]; first compound 0.2 µM", "value": 0.281}, {"measurement": "relative viability", "setting": "[12]; first compound 0.002 µM", "value": 0.421}, {"measurement": "relative viability", "setting": "[12]; first compound 0.006325 µM", "value": 0.445}, {"measurement": "relative viability", "setting": "[12]; first compound 0.02 µM", "value": 0.265}, {"measurement": "relative viability", "setting": "[12]; first compound 0.06325 µM", "value": 0.396}, {"measurement": "relative viability", "setting": "[12]; first compound 0.2 µM", "value": 0.158}]}]}
